Laboratory results as given in US8956868B2, “Induced pluripotent stem cells produced with a connexin inhibitor and a TGF-β signaling inhibitor” (LSIP, LLC, priority 2010, dated 2015).

Tested on: cardiomyocytes derived from neonatal mouse ventricles
Experiment: Reprogramming of cardiomyocytes into iPS cells (selective culture in mouse ES medium)
Type: cell-based
Conditions: ES medium containing both 10 μM SB-431542 and 100 nM siRNA Cx43 (combination); after about two weeks; cardiomyocytes seeded at 2×10^5 cells
Description: Two-day-old neonatal C57BL/6 or C57BL/6-Tg (CAG-EGFP) mouse hearts including ventricles were minced into approximately 2-mm cubes with dissecting scissors by a conventional method. They were treated with 0.2% collagenase (type II; Worthington Biochemical Corp. U.S.; dissolved in PBS) to dissociate cardiomyocytes. The dissociated cardiomyocytes were centrifuged, and incubated for 45 minutes in DMEM containing 10% FBS at 37° C. with 5% CO2. After the incubation, the supernatant was further incubated under the same conditions. This process was repeated four times. Thus, fibroblasts were removed, and the cardiomyocytes were isolated,
The cardiomyocytes were seeded at 2×10^5 cells in a 6-cm dish, and cultured in the above DMEM medium. After culturing for 1 week, the medium used for culturing the cardiomyocytes was switched from the above DMEM medium to mouse ES media containing 15% FBS and also containing either a TGF-β receptor inhibitor SB-431542 (10 μM; Tocris, USA), siRNA Cx43 (100 nM), or both compounds, to select the reprogrammed cells. […]

Compound | iPS cell colonies obtained
NC(=O)c1ccc(-c2nc(-c3ccc4c(c3)OCO4)c(-c3ccccn3)[nH]2)cc1 [SB-431542] | Two
siRNA Cx43: mouse Cx43 siRNA; sense 5′-CAAUUCCUCCUGCCGCAATT-3′, antisense 5′-UUGCGGCAGGAGGAAUUGTT-3′ (sense CAAUUCCUCCUGCCGCAATT; antisense UUGCGGCAGGAGGAAUUGTT; chemistry not given here) | Two
